Results reported in PMC3395594, “Rational Engineering of Enzyme Allosteric Regulation through Sequence Evolution Analysis” (PLoS Computational Biology, 2012).
Like-named read-outs stand apart in the source and are kept apart here.

What was measured:
Test in all cases: malachite green phosphate release assay, fit to nonlinear noncompetitive inhibition
Type in all cases: biochemical
[1] = target: T1, E. coli FBPase (fructose-1,6-bisphosphatase) (Escherichia coli, UniProt P0A993, K104Q/K218Q/R132I/Y210F)
T1 construct: gene fbp; full-length fbp in pET101/D-TOPO, reverse primer without stop (C-terminal vector tag with polyhistidine, no cleavage told), expressed in E. coli BL21 (DE3), Ni-NTA purified
T1 sequence (P0A993 whole entry K104Q/R132I/Y210F/K218Q): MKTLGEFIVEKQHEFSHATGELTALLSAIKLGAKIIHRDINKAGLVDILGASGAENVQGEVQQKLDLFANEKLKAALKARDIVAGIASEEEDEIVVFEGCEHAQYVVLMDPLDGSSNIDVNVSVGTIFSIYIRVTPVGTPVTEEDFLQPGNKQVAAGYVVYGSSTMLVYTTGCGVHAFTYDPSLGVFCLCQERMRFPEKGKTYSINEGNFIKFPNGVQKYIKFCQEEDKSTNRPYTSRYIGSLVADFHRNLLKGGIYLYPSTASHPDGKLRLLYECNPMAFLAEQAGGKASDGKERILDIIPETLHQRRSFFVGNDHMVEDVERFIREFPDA

[2] = target: T2, E. coli FBPase (fructose-1,6-bisphosphatase) (Escherichia coli, UniProt P0A993, K104Q)
T2 construct: gene fbp; full-length fbp in pET101/D-TOPO, reverse primer without stop (C-terminal vector tag with polyhistidine, no cleavage told), expressed in E. coli BL21 (DE3), Ni-NTA purified
T2 sequence (P0A993 whole entry K104Q): as the sequence (P0A993 whole entry K104Q/R132I/Y210F/K218Q) above, with I132R, F210Y, Q218K counted along it

[3] = target: T3, E. coli FBPase (fructose-1,6-bisphosphatase) (Escherichia coli, UniProt P0A993, R132I)
T3 construct: gene fbp; full-length fbp in pET101/D-TOPO, reverse primer without stop (C-terminal vector tag with polyhistidine, no cleavage told), expressed in E. coli BL21 (DE3), Ni-NTA purified
T3 sequence (P0A993 whole entry R132I): as the sequence (P0A993 whole entry K104Q/R132I/Y210F/K218Q) above, with Q104K, F210Y, Q218K counted along it

[4] = target: T4, E. coli FBPase (fructose-1,6-bisphosphatase) (Escherichia coli, UniProt P0A993, K104Q/R132I)
T4 construct: gene fbp; full-length fbp in pET101/D-TOPO, reverse primer without stop (C-terminal vector tag with polyhistidine, no cleavage told), expressed in E. coli BL21 (DE3), Ni-NTA purified
T4 sequence (P0A993 whole entry K104Q/R132I): as the sequence (P0A993 whole entry K104Q/R132I/Y210F/K218Q) above, with F210Y, Q218K counted along it

[5] = target: T5, E. coli FBPase (fructose-1,6-bisphosphatase) (Escherichia coli, UniProt P0A993)
T5 construct: gene fbp; full-length fbp in pET101/D-TOPO, reverse primer without stop (C-terminal vector tag with polyhistidine, no cleavage told), expressed in E. coli BL21 (DE3), Ni-NTA purified
T5 sequence (P0A993 1-332): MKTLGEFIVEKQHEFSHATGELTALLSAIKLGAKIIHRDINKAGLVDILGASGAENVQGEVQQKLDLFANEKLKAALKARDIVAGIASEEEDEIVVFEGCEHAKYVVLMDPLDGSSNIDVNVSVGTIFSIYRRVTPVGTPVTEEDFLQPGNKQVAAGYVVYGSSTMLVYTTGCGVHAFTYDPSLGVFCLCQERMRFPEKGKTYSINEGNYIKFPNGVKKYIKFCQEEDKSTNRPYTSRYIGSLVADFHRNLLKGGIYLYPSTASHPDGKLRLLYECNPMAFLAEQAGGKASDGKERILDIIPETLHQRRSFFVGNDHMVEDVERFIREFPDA
Description: malachite green phosphate release assay, fit to nonlinear noncompetitive inhibition on E. coli FBPase (fructose-1,6-bisphosphatase) | Comparison of inhibition constants of wild-type and mutant FBPase by the allosteric inhibitor, AMP. | Comparison of inhibition constant of wild-type and mutant FBPase by the allosteric inhibitor, Glc-6-P.

[6] = target: T6, E. coli FBPase (fructose-1,6-bisphosphatase) (Escherichia coli, UniProt P0A993, K104Q/R132I/Y210F/K218Q); conditions: allosteric Glc-6-P site; with respect to FBP; noncompetitive; Mg2+; pH 7.5, 25 C
T6 construct: gene fbp; full-length fbp in pET101/D-TOPO, reverse primer without stop (C-terminal vector tag with polyhistidine, no cleavage told), expressed in E. coli BL21 (DE3), Ni-NTA purified
T6 sequence (P0A993 whole entry K104Q/R132I/Y210F/K218Q): as the sequence (P0A993 whole entry K104Q/R132I/Y210F/K218Q) above

[7] = target: T7, E. coli FBPase (fructose-1,6-bisphosphatase) (Escherichia coli, UniProt P0A993, Y210F); conditions: allosteric Glc-6-P site, with respect to FBP, Mg2+, pH 7.5, 25 C
T7 construct: gene fbp; full-length fbp in pET101/D-TOPO, reverse primer without stop (C-terminal vector tag with polyhistidine, no cleavage told), expressed in E. coli BL21 (DE3), Ni-NTA purified
T7 sequence (P0A993 whole entry Y210F): as the sequence (P0A993 whole entry K104Q/R132I/Y210F/K218Q) above, with Q104K, I132R, Q218K counted along it

[8] = target: T8, E. coli FBPase (fructose-1,6-bisphosphatase) (Escherichia coli, UniProt P0A993, Y210F/K218Q); conditions: allosteric Glc-6-P site, with respect to FBP, Mg2+, pH 7.5, 25 C
T8 construct: gene fbp; full-length fbp in pET101/D-TOPO, reverse primer without stop (C-terminal vector tag with polyhistidine, no cleavage told), expressed in E. coli BL21 (DE3), Ni-NTA purified
T8 sequence (P0A993 whole entry Y210F/K218Q): as the sequence (P0A993 whole entry K104Q/R132I/Y210F/K218Q) above, with Q104K, I132R counted along it

[9] = target: T9, E. coli FBPase (fructose-1,6-bisphosphatase) (Escherichia coli, UniProt P0A993, K218Q); conditions: allosteric Glc-6-P site, with respect to FBP, Mg2+, pH 7.5, 25 C
T9 construct: gene fbp; full-length fbp in pET101/D-TOPO, reverse primer without stop (C-terminal vector tag with polyhistidine, no cleavage told), expressed in E. coli BL21 (DE3), Ni-NTA purified
T9 sequence (P0A993 whole entry K218Q): as the sequence (P0A993 whole entry K104Q/R132I/Y210F/K218Q) above, with Q104K, I132R, F210Y counted along it

Ki [1] [µM] | Ki [2] [µM] | Ki [3] [µM] | Ki [4] [µM] | Ki [5] [µM] | Ki [6] [µM] | Ki [7] [µM] | Ki [8] [µM] | Ki ([5]; allosteric Glc-6-P site, with respect to FBP, noncompetitive, Mg2+, pH 7.5, 25 C) [µM] | Ki [9] [µM] | Structure (SMILES)
1680 ± 299 | 419 ± 54.1 | 151 ± 12.9 | 1460 ± 215 | 10.1 ± 0.8 | – | – | – | – | – | Nc1ncnc2c1ncn2[C@@H]1O[C@H](COP(=O)(O)O)[C@@H](O)[C@H]1O [AMP]
– | – | – | – | – | 21100 ± 2900 | 13100 ± 2900 | 20400 ± 7300 | 800 ± 200 | 14100 ± 3900 | O=P(O)(O)OC[C@H]1OC(O)[C@H](O)[C@@H](O)[C@@H]1O (stereo partly shown) [Glc-6-P]
